Measurements as given in ChEMBL document CHEMBL4152218, “Novel hydrazide-hydrazone and amide substituted coumarin derivatives: Synthesis, cytotoxicity screening, microarray, radiolabeling and in vivo pharmacokinetic studies” (Eur J Med Chem, 2018).

Key:
PANC-1 = assay: Antiproliferative activity against human PANC1 cells after 48 hrs by resazurin dye-based fluorescence assay; assay type: functional, cell-based; conditions: PANC-1, 48 h
[1] = Selectivity index, ratio of IC50 for hTERT-BJ cells to IC50 for human HepG2 cells; assay type: toxicity; conditions: hTERT-BJ cells versus HepG2 cells, read-out: Ratio IC50
TERT-RPE1 [2] = assay: Cytotoxicity against hTERT-RPE1 cells after 48 hrs by resazurin dye-based fluorescence assay; assay type: cell-based; conditions: Homo sapiens, RPE-1, 48 h
TERT-RPE1 [3] = assay: Cytotoxicity against hTERT-RPE1 cells at 25 uM after 48 hrs by resazurin dye-based fluorescence assay relative to control; assay type: cell-based; conditions: human, tert-rpe1, 48 h
CCRF-CEM = assay: Antiproliferative activity against human CCRF-CEM cells after 48 hrs by resazurin dye-based fluorescence assay; assay type: functional, cell-based
hTERT-BJ [4] = assay: Cytotoxicity against hTERT-BJ cells after 48 hrs by resazurin dye-based fluorescence assay; assay type: cell-based; conditions: Homo sapiens
hTERT-BJ [5] = assay: Cytotoxicity against hTERT-BJ cells at 50 uM after 48 hrs by resazurin dye-based fluorescence assay relative to control; assay type: cell-based; conditions: human
TERT-RPE1 [6] = assay: Cytotoxicity against hTERT-RPE1 cells at 12.50 uM after 48 hrs by resazurin dye-based fluorescence assay relative to control; assay type: cell-based; conditions: human, tert-rpe1, 48 h, 12.5 µM
HepG2 = assay: Antiproliferative activity against human HepG2 cells after 48 hrs by resazurin dye-based fluorescence assay; assay type: functional, cell-based; conditions: HepG2, 48 h
[7] = Selectivity index, ratio of IC50 for hTERT-BJ cells to IC50 for human CCRF-CEM cells; assay type: toxicity; conditions: hTERT-BJ cells versus CCRF-CEM cells, read-out: Ratio IC50
[8] = Selectivity index, ratio of IC50 for hTERT-RPE1 cells to IC50 for human PANC1 cells; assay type: toxicity; conditions: hTERT-RPE1 cells versus PANC1 cells, read-out: Ratio IC50
hTERT-BJ [9] = assay: Cytotoxicity against hTERT-BJ cells at 6.25 uM after 48 hrs by resazurin dye-based fluorescence assay relative to control; assay type: cell-based; conditions: human
[10] = Selectivity index, ratio of IC50 for hTERT-RPE1 cells to IC50 for human HepG2 cells; assay type: toxicity; conditions: hTERT-RPE1 cells versus HepG2 cells, read-out: Ratio IC50
hTERT-BJ [11] = assay: Cytotoxicity against hTERT-BJ cells at 12.50 uM after 48 hrs by resazurin dye-based fluorescence assay relative to control; assay type: cell-based; conditions: human, 12.5 µM
hTERT-BJ [12] = assay: Cytotoxicity against hTERT-BJ cells at 25 uM after 48 hrs by resazurin dye-based fluorescence assay relative to control; assay type: cell-based; conditions: human
[13] = Selectivity index, ratio of IC50 for hTERT-BJ cells to IC50 for human PANC1 cells; assay type: toxicity; conditions: hTERT-BJ cells versus PANC1 cells, read-out: Ratio IC50
TERT-RPE1 [14] = assay: Cytotoxicity against hTERT-RPE1 cells at 6.25 uM after 48 hrs by resazurin dye-based fluorescence assay relative to control; assay type: cell-based; conditions: human, tert-rpe1, 48 h
TERT-RPE1 [15] = assay: Cytotoxicity against hTERT-RPE1 cells at 50 uM after 48 hrs by resazurin dye-based fluorescence assay relative to control; assay type: cell-based; conditions: human, tert-rpe1, 48 h
[16] = Selectivity index, ratio of IC50 for hTERT-RPE1 cells to IC50 for human CCRF-CEM cells; assay type: toxicity; conditions: hTERT-RPE1 cells versus CCRF-CEM cells, read-out: Ratio IC50

SMILES	IC50 (PANC-1)	selectivity ratio [1]	IC50 (TERT-RPE1 [2])	Activity (TERT-RPE1 [3])	IC50 (CCRF-CEM)	IC50 (hTERT-BJ [4])	Activity (hTERT-BJ [5])	Activity (TERT-RPE1 [6])	IC50 (HepG2)	selectivity ratio [7]	selectivity ratio [8]	Activity (hTERT-BJ [9])	selectivity ratio [10]	Activity (hTERT-BJ [11])	Activity (hTERT-BJ [12])	selectivity ratio [13]	Activity (TERT-RPE1 [14])	Activity (TERT-RPE1 [15])	selectivity ratio [16]
CCOc1ccc(NC(=O)c2cc3ccccc3oc2=O)cc1	13.4 µM	> 4.83	> 50 µM	22.19%	17.9 µM	> 50 µM	3.08%	12.77%	10.4 µM	> 2.79	> 3.74	0.59%	> 4.83	2.4%	2.82%	> 3.74	7.48%	23.27%	> 2.79
Cc1noc(NS(=O)(=O)c2ccc(NC(=O)c3cc4cc(Br)ccc4oc3=O)cc2)c1C	28.7 µM	> 5.68	> 50 µM	12.79%	14.6 µM	> 50 µM	13.26%	10.36%	8.8 µM	> 3.43	> 1.74	0.95%	> 5.68	1.2%	3.04%	> 1.74	1.84%	26.26%	> 3.43
O=C(N/N=C/c1cc2ccccc2nc1Cl)c1cc2cc([N+](=O)[O-])ccc2oc1=O	38.8 µM	> 2.2	> 50 µM	1.96%	26 µM	> 50 µM	2.73%	0.73%	22.8 µM	> 1.92	> 1.29	1.2%	> 2.2	1.37%	1.77%	> 1.29	1.3%	2.33%	> 1.92
O=C(N/N=C/c1ccncc1)c1cc2ccccc2oc1=O	9.75 µM	> 2.91	> 50 µM	12.2%	3.11 µM	> 50 µM	1.73%	4.08%	17.2 µM	> 16.1	> 5.13	0.6%	> 2.91	1.23%	3.9%	> 5.13	0.65%	13.73%	> 16.1
CCOc1ccc2nc(Cl)c(/C=N/NC(=O)c3cc4ccc(O)cc4oc3=O)cc2c1	0.129 µM	> 2.6	> 50 µM	8.85%	17.1 µM	> 50 µM	5.63%	8.35%	19.2 µM	> 2.92	> 388	3.67%	> 2.6	1.47%	2.26%	> 388	3.51%	13.99%	> 2.92
O=C(N/N=C/c1cccnc1)c1cc2ccc(O)cc2oc1=O	2.52 µM	> 2.72	> 50 µM	14.34%	14.1 µM	> 50 µM	2.27%	12.79%	18.4 µM	> 3.55	> 19.8	0.5%	> 2.72	1.26%	1.99%	> 19.8	8.83%	20.79%	> 3.55
COc1cccc2c1C(=O)c1c(O)c3c(c(O)c1C2=O)C[C@@](O)(C(=O)CO)C[C@@H]3O[C@H]1C[C@H](N)[C@H](O)[C@H](C)O1 [DOXORUBICIN]	6.9 µM	< 1.15	< 6.25 µM	–	1.05 µM	< 6.25 µM	–	–	5.43 µM	< 5.95	< 0.91	–	< 1.15	–	–	< 0.91	–	–	< 5.95
Cc1noc(NS(=O)(=O)c2ccc(NC(=O)c3cc4ccccc4oc3=O)cc2)c1C	19.9 µM	> 2.09	> 50 µM	33.32%	26.6 µM	> 50 µM	26.66%	13.72%	24 µM	> 1.88	> 2.51	8.49%	> 2.09	10.4%	15.88%	> 2.51	9.28%	47.61%	> 1.88
CCOc1ccc(NC(=O)c2cc3ccc(O)cc3oc2=O)cc1	14.3 µM	> 2.88	> 50 µM	19.22%	12.6 µM	> 50 µM	31.23%	13.91%	17.3 µM	> 3.97	> 3.5	10.17%	> 2.88	15.98%	30.03%	> 3.5	11.23%	36.28%	> 3.97
Cc1noc(NS(=O)(=O)c2ccc(NC(=O)c3cc4ccc(O)cc4oc3=O)cc2)c1C	16.2 µM	> 1.29	> 50 µM	5.92%	21.5 µM	> 50 µM	5%	5.89%	38.8 µM	> 2.33	> 3.09	1.17%	> 1.29	3.52%	3.63%	> 3.09	0.99%	5.78%	> 2.33
O=C(N/N=C/c1cccnc1)c1cc2cc([N+](=O)[O-])ccc2oc1=O	11.8 µM	> 2.94	> 50 µM	10.95%	17.1 µM	> 50 µM	3.99%	2.22%	17 µM	> 2.92	> 4.24	3.59%	> 2.94	5.49%	3.22%	> 4.24	1.1%	17.11%	> 2.92
O=C(N/N=C/c1ccncc1)c1cc2cc([N+](=O)[O-])ccc2oc1=O	26.1 µM	> 3.15	> 50 µM	11.23%	13 µM	> 50 µM	7.55%	10.1%	15.8 µM	> 3.86	> 1.92	0.78%	> 3.15	5.5%	6.48%	> 1.92	6.97%	13.97%	> 3.86
CCOc1ccc2nc(Cl)c(/C=N/NC(=O)c3cc4ccccc4oc3=O)cc2c1	29.9 µM	> 1.51	> 50 µM	9.5%	6.32 µM	> 50 µM	3.64%	1.23%	33.1 µM	> 7.92	> 1.67	2.77%	> 1.51	5.65%	3.92%	> 1.67	1.13%	9.97%	> 7.92
